For 37 molecules, IC50 results are on record in patent US20180251431A1 (VERTEX PHARMACEUTICALS INCORPORATED, priority 2016, published 2018).

Some results are limits rather than exact numbers.

For this assay, the system named is HEK293 cells. Kind of assay: HEK293 VLCFA-LPC IC50 determination (13C-labeled C26:0 LPC by UHPLC/MS). Type of assay: cell-based, human. Particulars: Homo sapiens, HEK293, HEK293 cells; average of one or more replicates; read-out: Average HEK293 IC50. The method, boiled down:
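Suspension HEK293 cells (final 0.5 million/mL after mixing with equal volume) incubated 48 hours with compound plus 13C-acetate (1.0 mg/mL in added media), shaking at 37° C. Lipids extracted with hexane/isopropanol or methanol, C13:0 LPC standard. UHPLC/MS of 13C-labeled C26:0 LPC (638.500/104.100 m/z); IC50 by four-parameter fit.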

Consider `COc1cc(-n2ccc(NC(=O)C3(c4ccc(F)cn4)CC3)n2)ccn1` [Compound 485, 1-(5-fluoro-2-pyridyl)-N-[1-(2-methoxy-4-pyridyl)pyrazol-3-yl]cyclopropanecarboxamide], for which the half-inhibitory concentration (IC50) is 1500 nM.

As for `O=C(Nc1ccn(-c2cc(F)cc(F)c2)n1)C1(c2ccc(F)cn2)CC1` [Compound 487, N-[1-(3,5-difluorophenyl)pyrazol-3-yl]-1-(5-fluoro-2-pyridyl)cyclopropanecarboxamide], the IC50 is 1200 nM.

As for `O=C(Nc1ccn(-c2ccc(F)cc2)n1)C1(c2ccc(F)cn2)CC1` [Compound 488, N-[1-(4-fluorophenyl)pyrazol-3-yl]-1-(5-fluoro-2-pyridyl)cyclopropanecarboxamide], the IC50 was found to be 510 nM.

Turning to `O=C(Nc1ccn(-c2ccncc2)n1)C1(c2ccc(F)cn2)CC1` [Compound 489, 1-(5-fluoro-2-pyridyl)-N-[1-(4-pyridyl)pyrazol-3-yl]cyclopropanecarboxamide], the IC50 turned out to be 1500 nM.

With `O=C(Nc1ccn(-c2cncc(OC(F)F)c2)n1)C1(c2ccc(F)cn2)CC1` [Compound 490, N-[1-[5-(difluoromethoxy)-3-pyridyl]pyrazol-3-yl]-1-(5-fluoro-2-pyridyl)cyclopropanecarboxamide], the IC50 was above 5000 nM.

In the case of `COc1cc(-n2ccc(NC(=O)C3(c4cnccn4)CC3)n2)ccn1` [Compound 491, N-[1-(2-methoxy-4-pyridyl)pyrazol-3-yl]-1-pyrazin-2-yl-cyclopropanecarboxamide], the IC50 was above 5000 nM.

Take `O=C(Nc1ccn(-c2ccc(F)c(F)c2)n1)C1(c2cnccn2)CC1` [Compound 492, N-[1-(3,4-difluorophenyl)pyrazol-3-yl]-1-pyrazin-2-yl-cyclopropanecarboxamide]: the half-maximal inhibitory concentration (IC50) was above 5000 nM.

For the molecule `O=C(Nc1ccn(-c2cc(F)cc(F)c2)n1)C1(c2cnccn2)CC1` [Compound 493, N-[1-(3,5-difluorophenyl)pyrazol-3-yl]-1-pyrazin-2-yl-cyclopropanecarboxamide], the IC50 was above 5000 nM.

As to `O=C(Nc1ccn(-c2ccc(F)cc2)n1)C1(c2cnccn2)CC1` [Compound 494, N-[1-(4-fluorophenyl)pyrazol-3-yl]-1-pyrazin-2-yl-cyclopropanecarboxamide], the IC50 is above 5000 nM.

Take `O=C(Nc1ccn(-c2ccncc2)n1)C1(c2cnccn2)CC1` [Compound 495, 1-pyrazin-2-yl-N-[1-(4-pyridyl)pyrazol-3-yl]cyclopropanecarboxamide]: the IC50 was above 5000 nM.

Consider `O=C(Nc1ccn(-c2cncc(OC(F)F)c2)n1)C1(c2cnccn2)CC1` [Compound 496, N-[1-[5-(difluoromethoxy)-3-pyridyl]pyrazol-3-yl]-1-pyrazin-2-yl-cyclopropanecarboxamide], for which the IC50 was above 5000 nM.

In the case of `Cc1cnc(C2(C(=O)Nc3ccn(-c4cncc(F)c4)n3)CC2)c(F)c1` [Compound 497, 1-(3-fluoro-5-methyl-2-pyridyl)-N-[1-(5-fluoro-3-pyridyl)pyrazol-3-yl]cyclopropanecarboxamide], the 50% inhibitory concentration (IC50) amounted to 2100 nM.

Take `O=C(Nc1ccn(-c2cncc(F)c2)n1)C1(c2ncc(Cl)cc2F)CC1` [Compound 498, 1-(5-chloro-3-fluoropyridin-2-yl)-N-(1-(5-fluoropyridin-3-yl)-1H-pyrazol-3-yl)cyclopropane-1-carboxamide]: the IC50 was found to be 470 nM.

In the case of `COc1ccnc(-n2ccc(NC(=O)C3(c4ccccc4F)CC3)n2)c1` [Compound 501, 1-(2-fluorophenyl)-N-[1-(4-methoxy-2-pyridyl)pyrazol-3-yl]cyclopropanecarboxamide], the IC50 was above 5000 nM.

With `COc1cccc(-n2ccc(NC(=O)C3(c4ccccc4F)CC3)n2)n1` [Compound 502, 1-(2-fluorophenyl)-N-[1-(6-methoxy-2-pyridyl)pyrazol-3-yl]cyclopropanecarboxamide], the half-inhibitory concentration (IC50) was above 5000 nM.

As for `CC1CC1(C(=O)Nc1ccn(-c2cncc(F)c2)n1)c1ncccc1F` (stereo not shown) [Compound 503, 1-(3-fluoro-2-pyridyI)-N-[1-(5-fluoro-3-pyridyl)pyrazol-3-yl]-2-methyl-cyclopropanecarboxamide], the half-maximal inhibitory concentration (IC50) stood at 110 nM.

For the molecule `CC1CC1(C(=O)Nc1ccn(-c2cncc(Cl)c2)n1)c1ncccc1F` (stereo not shown) [Compound 504, N-[1-(5-chloro-3-pyridyl)pyrazol-3-yl]-1-(3-fluoro-2-pyridyl)-2-methyl-cyclopropanecarboxamide], the half-maximal inhibitory concentration (IC50) was 120 nM.

Take `CC1CC1(C(=O)Nc1ccn(-c2ccc(F)cc2)n1)c1ncccc1F` (stereo not shown) [Compound 505, N-[1-(4-fluorophenyl)pyrazol-3-yl]-1-(3-fluoro-2-pyridyl)-2-methyl-cyclopropanecarboxamide]: the half-inhibitory concentration (IC50) amounted to 110 nM.

Regarding `CC1CC1(C(=O)Nc1ccn(-c2ccc(F)c(F)c2)n1)c1ncccc1F` (stereo not shown) [Compound 506, N-[1-(3,4-difluorophenyl)pyrazol-3-yl]-1-(3-fluoro-2-pyridyl)-2-methyl-cyclopropanecarboxamide], the IC50 was 220 nM.

Take `Cc1cc(NC(=O)C2(c3ncccc3F)CC2C)nn1-c1ccc(F)cc1F` (stereo not shown) [Compound 507, N-[1-(2,4-difluorophenyl)-5-methyl-pyrazol-3-yl]-1-(3-fluoro-2-pyridyl)-2-methyl-cyclopropanecarboxamide]: the IC50 is above 5000 nM.

As for `CC1CC1(C(=O)Nc1ccn(-c2cc(F)cc(F)c2)n1)c1ncccc1F` (stereo not shown) [Compound 508, N-[1-(3,5-difluorophenyl)pyrazol-3-yl]-1-(3-fluoro-2-pyridyl)-2-methyl-cyclopropanecarboxamide], the IC50 is 71 nM.

As for `COc1ncc(-n2ccc(NC(=O)C3(c4ncccc4F)CC3C)n2)cc1F` (stereo not shown) [Compound 509, N-[1-(5-fluoro-6-methoxy-3-pyridyl)pyrazol-3-yl]-1-(3-fluoro-2-pyridyl)-2-methyl-cyclopropanecarboxamide], the IC50 came to 180 nM.

On to `COc1cc(-n2ccc(NC(=O)C3(c4ncccc4F)CC3C)n2)ccn1` (stereo not shown) [Compound 510, 1-(3-fluoro-2-pyridyl)-N-[1-(2-methoxy-4-pyridyl)pyrazol-3-yl]-2-methyl-cyclopropanecarboxamide], for which the half-maximal inhibitory concentration (IC50) is 670 nM.

As for `CC1(C)CC1(C(=O)Nc1ccn(-c2cncc(F)c2)n1)c1ncccc1F` (stereo not shown) [Compound 511, 1-(3-fluoro-2-pyridyl)-N-[1-(5-fluoro-3-pyridyl)pyrazol-3-yl]-2,2-dimethyl-cyclopropanecarboxamide], the half-inhibitory concentration (IC50) was found to be 310 nM.

Regarding `CC1(C)CC1(C(=O)Nc1ccn(-c2cncc(Cl)c2)n1)c1ncccc1F` (stereo not shown) [Compound 512, N-[1-(5-chloro-3-pyridyl)pyrazol-3-yl]-1-(3-fluoro-2-pyridyl)-2,2-dimethyl-cyclopropanecarboxamide], the IC50 is 1100 nM.

Turning to `CC1(C)CC1(C(=O)Nc1ccn(-c2ccc(F)cc2)n1)c1ncccc1F` (stereo not shown) [Compound 513, N-[1-(4-fluorophenyl)pyrazol-3-yl]-1-(3-fluoro-2-pyridyl)-2,2-dimethyl-cyclopropanecarboxamide], the IC50 was 980 nM.

`CC1(C)CC1(C(=O)Nc1ccn(-c2ccc(F)c(F)c2)n1)c1ncccc1F` (stereo not shown) [Compound 514, N-[1-(3,4-difluorophenyl)pyrazol-3-yl]-1-(3-fluoro-2-pyridyl)-2,2-dimethyl-cyclopropanecarboxamide]: the IC50 turned out to be 1800 nM.

For `Cc1cc(NC(=O)C2(c3ncccc3F)CC2(C)C)nn1-c1ccc(F)cc1F` (stereo not shown) [Compound 515, N-[1-(2,4-difluorophenyl)-5-methyl-pyrazol-3-yl]-1-(3-fluoro-2-pyridyl)-2,2-dimethyl-cyclopropanecarboxamide], the IC50 is above 5000 nM.

With `CC1(C)CC1(C(=O)Nc1ccn(-c2cc(F)cc(F)c2)n1)c1ncccc1F` (stereo not shown) [Compound 516, N-[1-(3,5-difluorophenyl)pyrazol-3-yl]-1-(3-fluoro-2-pyridyl)-2,2-dimethyl-cyclopropanecarboxamide], the IC50 worked out at 1300 nM.

Regarding `COc1ncc(-n2ccc(NC(=O)C3(c4ncccc4F)CC3(C)C)n2)cc1F` (stereo not shown) [Compound 517, N-[1-(5-fluoro-6-methoxy-3-pyridyl)pyrazol-3-yl]-1-(3-fluoro-2-pyridyl)-2,2-dimethyl-cyclopropanecarboxamide], the IC50 was 1100 nM.

As for `CC1(C)CC1(C(=O)Nc1ccn(-c2ccncc2)n1)c1ncccc1F` (stereo not shown) [Compound 518, 1-(3-fluoro-2-pyridyl)-2,2-dimethyl-N-[1-(4-pyridyl)pyrazol-3-yl]cyclopropanecarboxamide], the 50% inhibitory concentration (IC50) was 1200 nM.

Consider `COc1cc(-n2ccc(NC(=O)C3(c4ncccc4F)CC3(C)C)n2)ccn1` (stereo not shown) [Compound 519, 1-(3-fluoro-2-pyridyl)-N-[1-(2-methoxy-4-pyridyl)pyrazol-3-yl]-2,2-dimethyl-cyclopropanecarboxamide], for which the half-maximal inhibitory concentration (IC50) is above 2000 nM.

With `O=C(Nc1ccn(-c2cncc(Cl)c2)n1)C1(c2ncccc2F)CC12CC2` (stereo not shown) [Compound 520, N-[1-(5-chloro-3-pyridyl)pyrazol-3-yl]-2-(3-fluoro-2-pyridyl)spiro[2.2]pentane-2-carboxamide], the IC50 amounted to 1600 nM.

For `O=C(Nc1ccn(-c2ccc(F)cc2)n1)C1(c2ncccc2F)CC12CC2` (stereo not shown) [Compound 521, N-[1-(4-fluorophenyl)pyrazol-3-yl]-2-(3-fluoro-2-pyridyl)spiro[2.2]pentane-2-carboxamide], the half-maximal inhibitory concentration (IC50) came to 2300 nM.

Take `O=C(Nc1ccn(-c2ccc(F)c(F)c2)n1)C1(c2ncccc2F)CC12CC2` (stereo not shown) [Compound 522, N-[1-(3,4-difluorophenyl)pyrazol-3-yl]-2-(3-fluoro-2-pyridyl)spiro[2.2]pentane-2-carboxamide]: the IC50 is 810 nM.

For `Cc1cc(NC(=O)C2(c3ncccc3F)CC23CC3)nn1-c1ccc(F)cc1F` (stereo not shown) [Compound 523, N-[1-(2,4-difluorophenyl)-5-methyl-pyrazol-3-yl]-2-(3-fluoro-2-pyridyl)spiro[2.2]pentane-2-carboxamide], the IC50 was above 2000 nM.

Consider `O=C(Nc1ccn(-c2cc(F)cc(F)c2)n1)C1(c2ncccc2F)CC12CC2` (stereo not shown) [Compound 524, N-[1-(3,5-difluorophenyl)pyrazol-3-yl]-2-(3-fluoro-2-pyridyl)spiro[2.2]pentane-2-carboxamide], for which the IC50 came out at 1500 nM.

As a reminder, the IC50 is the concentration at which inhibition is half-maximal.
